# “Also recorded” adds a separate entry of the source. Read-outs that look alike come from different tables or passages of the source.
# What was measured:
# [1] = test system: ILM model substrate (silk granules); details: for Ratio λmax with MS and reference 632-635 nm: 632 nm (7a), 634 nm (7b, 7d), 635 nm (7c); for binding to the model substrate (in words): UV/vis, before and after treatment with model substrate
# Description: To examine the binding of various dyes to the ILM model substrate, UV/vis measurements of the dyes Brilliant Blue G (BBG), compounds 7a-d, and Indocyanine green (ICG) were performed at various concentrations both before and after treatment with the model substrate. The aim of these measurements is to compare the binding strength of the individual dyes.
# Stock solutions of the dyes with a concentration of 5 mg/mL were prepared using phosphate-buffered saline (PBS) at physiological pH 7.4.
# To ensure measurement is as accurate as possible, the dye-model substrate solutions and the references were not prepared separately, but likewise used as stock solutions.
# Subsequently, 6 mg of ILM model substrate plus 6 mL of dye solution and a reference solution comprising only 6 mL of dye solution were stirred for exactly 10 minutes and then centrifuged together for 8 minutes at 6000 rpm. The solutions were photographed and the carefully decanted supernatants analyzed by UV/vis spectroscopy. The ratios of the absorption maxima λmax with the model substrate to the absorption maximum λmax of the reference were calculated. This allowed the binding strengths of the individual dyes to be compared.
# [2] = Solubility / precipitation of dye in phosphate-buffered saline; assay type: physicochemical; details: PBS
# Source text: Indocyanine green is one of the most important dyes in chromovitrectomy, particularly in the field of ILM peeling. The dye does, however, give rise to some problems and also to handling difficulties. Although it has long since been used for staining the inner limiting membrane and epiretinal membranes, studies have shown the dye to have numerous disadvantages.
Ratio λmax with MS and reference 588 nm ([1]; 0.005 mg/mL in PBS pH 7.4) [%],Ratio λmax with MS and reference 632-635 nm ([1]; 0.005 mg/mL in PBS pH 7.4) [%],Ratio λmax with MS and reference 588 nm ([1]; 0.01 mg/mL in PBS pH 7.4) [%],Ratio λmax with MS and reference 632-635 nm ([1]; 0.01 mg/mL in PBS pH 7.4) [%],Ratio λmax with MS and reference 588 nm ([1]; 0.02 mg/mL in PBS pH 7.4) [%],Ratio λmax with MS and reference 632-635 nm ([1]; 0.02 mg/mL in PBS pH 7.4) [%],Ratio λmax with MS and reference 588 nm ([1]; 0.04 mg/mL in PBS pH 7.4) [%],Ratio λmax with MS and reference 632-635 nm ([1]; 0.04 mg/mL in PBS pH 7.4) [%],Ratio λmax with MS and reference 588 nm ([1]; 0.08 mg/mL in PBS pH 7.4) [%],Ratio λmax with MS and reference 632-635 nm ([1]; 0.08 mg/mL in PBS pH 7.4) [%],Ratio λmax with MS and reference 588 nm ([1]; 0.16 mg/mL in PBS pH 7.4) [%],Ratio λmax with MS and reference 632-635 nm ([1]; 0.16 mg/mL in PBS pH 7.4) [%],Structure (SMILES),binding to the model substrate (in words) [1],other results
54,54,52,52,54,55,57,58,67,69,76,78,"CCCC[N+](C)(C)CCCNc1ccc(NCCC[N+](C)(C)CCCC)c2c1C(=O)c1ccccc1C2=O [7a, N,N′=(((9,10-dioxo-9,10-dihydroanthracene-1,4-diyl)bis(azanediyl))bis(propane-3,1-diy1))bis(N,N-dimethylbutan-1-aminium) bromide]",–,–
11,9,10,8,6,6,8,8,18,19,32,34,"CCCCCCCC[N+](C)(C)CCCNc1ccc(NCCC[N+](C)(C)CCCCCCCC)c2c1C(=O)c1ccccc1C2=O [7b, N,N′-(((9,10-dioxo-9,10-dihydroanthracene-1,4-diyl)bis(azanediyl))bis(propane-3,1-diyl))bis(N,N-dimethyloctan-1-aminium) bromide]",–,–
48,37,21,17,7,7,4,5,8,10,13,17,"CCCCCCCCCC[N+](C)(C)CCCNc1ccc(NCCC[N+](C)(C)CCCCCCCCCC)c2c1C(=O)c1ccccc1C2=O [7c, N,N′=(((9,10-dioxo-9,10-dihydroanthracene-1,4-diyl)bis(azanediyl))bis(propane-3,1-diyl))bis(N,N-dimethyldecan-1-aminium) Bromide]",–,–
12,13,7,8,3,4,3,3,1,2,18,18,"CCCCCCCCCCCC[N+](C)(C)CCCNc1ccc(NCCC[N+](C)(C)CCCCCCCCCCCC)c2c1C(=O)c1ccccc1C2=O [7d, N,N′(((9,10-dioxo-9,10-dihydroanthracene-1,4-diyl)bis(azanediyl))bis(propane-3,1-diyl))bis(N,N-dimethyldodecan-1-aminium) Bromide]",–,–
–,–,–,–,–,–,–,–,–,–,–,–,"CCOc1ccc(Nc2ccc(/C(=C3C=C/C(=[N+](/CC)Cc4cccc(S(=O)(=O)[O-])c4)C=C/3C)c3ccc(N(CC)Cc4cccc(S(=O)(=O)[O-])c4)cc3C)cc2)cc1.[Na+] [BBG, Brilliant Blue G, reference compound]",good binding,"binding of the dye ([1]; 0.005 mg/mL in PBS pH 7.4): 76%; Ratio λmax with MS and reference ([1]; 0.005 mg/mL in PBS pH 7.4, maximum about 585 nm): 24%; Ratio λmax with MS and reference ([1]; 0.01 mg/mL in PBS pH 7.4, maximum about 585 nm): 32%; Ratio λmax with MS and reference ([1]; 0.02 mg/mL in PBS pH 7.4, maximum about 585 nm): 44%; Ratio λmax with MS and reference ([1]; 0.04 mg/mL in PBS pH 7.4, maximum about 585 nm): 48%; binding of the dye ([1]; 0.08 mg/mL in PBS pH 7.4): 48%; Ratio λmax with MS and reference ([1]; 0.08 mg/mL in PBS pH 7.4, maximum about 585 nm): 62%"
–,–,–,–,–,–,–,–,–,–,–,–,"CC1(C)C(/C=C/C=C/C=C/C=C2\N(CCCCS(=O)(=O)O)c3ccc4ccccc4c3C2(C)C)=[N+](CCCCS(=O)(=O)[O-])c2ccc3ccccc3c21 [ICG, Indocyanine green, reference compound]",positive binding,"solubility in saline solutions / phosphate-buffered saline [2]: poor solubility; also recorded: causes the compound to precipitate; Ratio λmax with MS and reference ([1]; 0.005 mg/mL in double-distilled water, 779/780 nm): 47%; Ratio λmax with MS and reference ([1]; 0.01 mg/mL in double-distilled water, 779/780 nm): 95%; Ratio λmax with MS and reference ([1]; 0.02 mg/mL in double-distilled water, 779/780 nm): 42%; Ratio λmax with MS and reference ([1]; 0.04 mg/mL in double-distilled water, 779/780 nm): 85%"

# From patent US20230181768A1, “TISSUE-TARGETING COMPLEX” (PHARMPUR GMBH, priority 2017, published 2023)
